The values that follow come from PubChem BioAssay (NCI).

The structures appear in SMILES notation. Values joined by “and” are separate entries in the source; they are usually repeats but may differ in a detail not shown here. Equal values may be shown once.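 Briefly, cells in 96-well plates were exposed to five compound concentrations for 48 h, and endpoints were estimated by linear interpolation. GI50 marks 50% less growth. TGI: total growth inhibition.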

Test systems include NCI/ADR-RES ovarian; M14 melanoma; MOLT-4 leukemia; 786-0 renal; RPMI-8226 leukemia; T-47D breast; SN12C renal; SK-MEL-2 melanoma; ACHN renal; IGROV1 ovarian.
Common to all, as to assay: NCI tumour cell line growth inhibition, 48 h

With `C/C1=C\CC[C@@](C)(O)[C@H]2C[C@H](CC/C(C)=C/CC1)C1(CC1)C(=O)O2`, the GI50 with NCI/ADR-RES ovarian is 23.6 µM; with M14 melanoma, 31.4 µM; in the test with MOLT-4 leukemia it was 16.6 µM; with 786-0 renal it was 16.4 µM; with RPMI-8226 leukemia it was 14.2 µM; in the test with T-47D breast, 36.5 µM. In addition, the GI50 with SN12C renal is 20.3 µM; in the test with SK-MEL-2 melanoma it was 39.1 µM; with ACHN renal, 16.8 µM; in the test with IGROV1 ovarian it was 18.9 µM. In addition, the TGI with NCI/ADR-RES ovarian was 57.4 µM; with M14 melanoma it was over 100 µM; in the test with MOLT-4 leukemia it was 55.9 µM; in the test on 786-0 renal it was 30.6 µM; with RPMI-8226 leukemia, 35.8 µM; in the test on T-47D breast it was over 100 µM. Further, the TGI in the test with SN12C renal was 43.2 µM; with SK-MEL-2 melanoma, over 100 µM; in the test with ACHN renal, 31.3 µM; with IGROV1 ovarian, 39.7 µM.

With `CC[C@](O)(C(=O)O)c1cc2n(c(=O)c1CO)Cc1cc3ccccc3nc1-2`, the GI50 with NCI/ADR-RES ovarian is 0.00661 µM and 0.012 µM; in the test with M14 melanoma, 0.0108 µM; with MOLT-4 leukemia it was under 0.0025 µM; with RPMI-8226 leukemia, 0.00677 µM and 0.0458 µM; in the test on T-47D breast it was under 0.0025 µM; in the test on SN12C renal, 0.00365 µM and < 0.0193 µM. For the same molecule, the GI50 with SK-MEL-2 melanoma is 0.314 µM and 0.39 µM; in the test on IGROV1 ovarian it was 0.0299 µM and 0.197 µM. The TGI was 0.224 µM and 0.121 µM and 0.0889 µM with NCI/ADR-RES ovarian; 0.0511 µM and 0.181 µM in the test on M14 melanoma; 0.0525 µM in the test on 786-0 renal; 0.0755 µM in the test on T-47D breast; 0.822 µM and 0.121 µM in the test on SN12C renal; 1.7 µM and 1.46 µM and 0.699 µM with SK-MEL-2 melanoma. Moreover, the TGI in the test with ACHN renal was determined as 0.0211 µM.

Turning to `N#Cc1cc2cc3c4c(c2oc1=O)CCCN4CCC3`, the TGI with NCI/ADR-RES ovarian, in the test on M14 melanoma, in the test with MOLT-4 leukemia, in the test with 786-0 renal, in the test on RPMI-8226 leukemia and in the test on T-47D breast was over 100 µM in each case. For the same molecule, the TGI in the test with SN12C renal, with SK-MEL-2 melanoma, in the test with ACHN renal and in the test on IGROV1 ovarian was over 100 µM throughout.

With `NC1=CC(=O)C(=O)c2cccnc21`, the GI50 was 3.6 µM with NCI/ADR-RES ovarian; 1.83 µM in the test with M14 melanoma; 3.15 µM in the test with MOLT-4 leukemia; 14.8 µM in the test with 786-0 renal; 2.65 µM with RPMI-8226 leukemia; 3.68 µM in the test on T-47D breast. Besides, the GI50 in the test with SN12C renal was 3.11 µM; with SK-MEL-2 melanoma, 3.85 µM; with ACHN renal, 6.73 µM; in the test with IGROV1 ovarian it was 7.91 µM. Further, the TGI in the test with NCI/ADR-RES ovarian was 24 µM; in the test on M14 melanoma, 6.29 µM; in the test on MOLT-4 leukemia, 8.41 µM; in the test on 786-0 renal, 28 µM; in the test with RPMI-8226 leukemia, 9.91 µM; in the test with T-47D breast it was 9.73 µM. For the same molecule, the TGI in the test with SN12C renal worked out at 13.4 µM; in the test on SK-MEL-2 melanoma, 15.6 µM; with ACHN renal, 19.9 µM; with IGROV1 ovarian it was 23.1 µM.

On to `COC(=O)Nc1nc2c(OC)c(OC)c(OC)cc2[nH]1`, for which the GI50 with NCI/ADR-RES ovarian was 8.91 µM; with M14 melanoma, 8.9 µM; in the test on MOLT-4 leukemia it was 67.2 µM; with 786-0 renal, 66.4 µM; with RPMI-8226 leukemia it was 35.6 µM; in the test on T-47D breast, 33.2 µM. The GI50 was 74 µM in the test with SN12C renal, 15.1 µM with SK-MEL-2 melanoma, 81.9 µM in the test with ACHN renal and 22.1 µM with IGROV1 ovarian. The TGI with NCI/ADR-RES ovarian was 97.6 µM; with M14 melanoma, over 100 µM; in the test with MOLT-4 leukemia, over 100 µM; with 786-0 renal, over 100 µM; in the test on RPMI-8226 leukemia it was over 100 µM; with T-47D breast, over 100 µM. Besides, the TGI in the test on SN12C renal was over 100 µM; in the test with SK-MEL-2 melanoma it was over 91.6 µM; in the test with ACHN renal it was over 100 µM; in the test with IGROV1 ovarian, over 100 µM.

In the case of `CCOC(=O)Nc1nc2c(F)c(F)c(F)cc2s1`, the GI50 is over 100 µM in the test with NCI/ADR-RES ovarian; over 100 µM with M14 melanoma; over 100 µM in the test with MOLT-4 leukemia; 84.3 µM in the test with 786-0 renal; over 100 µM in the test with RPMI-8226 leukemia; 61.8 µM with T-47D breast. The GI50 in the test with SN12C renal is over 100 µM; in the test with SK-MEL-2 melanoma, 53.1 µM; in the test on ACHN renal, over 100 µM; with IGROV1 ovarian, over 100 µM. The TGI in the test with NCI/ADR-RES ovarian, in the test with M14 melanoma, in the test on MOLT-4 leukemia, in the test with 786-0 renal, with RPMI-8226 leukemia and in the test on T-47D breast was over 100 µM in each case. The TGI with SN12C renal, with SK-MEL-2 melanoma, in the test on ACHN renal and in the test on IGROV1 ovarian was over 100 µM throughout.

As for `COc1cc(C/C=C/c2ccccc2)c(OC)cc1O`, the TGI was 72 µM in the test on NCI/ADR-RES ovarian; 46.4 µM in the test on M14 melanoma; 52.8 µM with MOLT-4 leukemia; 27.7 µM in the test on 786-0 renal; 30.5 µM in the test on RPMI-8226 leukemia; 35.3 µM with T-47D breast. Also, the TGI with SN12C renal is 34.5 µM; with SK-MEL-2 melanoma, 52.3 µM; with ACHN renal, 52.7 µM; with IGROV1 ovarian it was 37.2 µM.

Turning to `CC1=C[C@H]2c3c(c(O)c(O)c4oc5cc(O)cc(O)c5c(=O)c34)[C@H](c3cc(O)c(O)c4oc5cc(O)cc(O)c5c(=O)c34)[C@H]2C(C)(C)C1`, the GI50 in the test with NCI/ADR-RES ovarian was 8.48 µM and 3.63 µM; in the test with M14 melanoma, 1.59 µM and 1.62 µM; in the test on MOLT-4 leukemia it was 0.764 µM and 1.92 µM; in the test with 786-0 renal, 2.43 µM and 2.16 µM; with RPMI-8226 leukemia, 0.915 µM and 0.392 µM; in the test on T-47D breast, 2.78 µM. In addition, the GI50 with SN12C renal is 1.84 µM and 2.11 µM; with SK-MEL-2 melanoma it was 2.41 µM; with ACHN renal, 1.73 µM and 1.84 µM; in the test with IGROV1 ovarian, 1.36 µM and 2.05 µM. Moreover, the TGI is 34.9 µM and 25.4 µM in the test with NCI/ADR-RES ovarian; 5.19 µM and 4.93 µM in the test with M14 melanoma; 3.31 µM and 12.9 µM with MOLT-4 leukemia; 6.66 µM and 6.33 µM in the test on 786-0 renal; 4.57 µM and 2.04 µM in the test on RPMI-8226 leukemia; 26 µM with T-47D breast. In addition, the TGI in the test on SN12C renal is 6.88 µM and 8.24 µM; with SK-MEL-2 melanoma it was 5.17 µM and 6.41 µM; with ACHN renal, 5.27 µM and 10.2 µM; in the test on IGROV1 ovarian, 5.26 µM and 17 µM.

For the molecule `Cc1cc(C)cc(Nc2nccc(-c3c(-c4ccc(F)cc4)ncn3C3CCNCC3)n2)c1`, the GI50 in the test with NCI/ADR-RES ovarian is 1.79 µM; in the test on M14 melanoma it was 1.59 µM; in the test on MOLT-4 leukemia, 2.03 µM; with 786-0 renal it was 1.31 µM; in the test on RPMI-8226 leukemia it was 2.07 µM; in the test on T-47D breast, 1.42 µM. In addition, the GI50 was 1.21 µM with SN12C renal, 2.04 µM with SK-MEL-2 melanoma, 0.46 µM in the test with ACHN renal and 0.312 µM with IGROV1 ovarian. Further, the TGI with NCI/ADR-RES ovarian is 4.07 µM; in the test with M14 melanoma, 3.18 µM; in the test on MOLT-4 leukemia it was 5.32 µM; with 786-0 renal, 2.79 µM; in the test with RPMI-8226 leukemia it was 5.18 µM; with T-47D breast, 3.79 µM. Also, the TGI with SN12C renal is 2.59 µM; in the test with SK-MEL-2 melanoma, 4.09 µM; in the test on ACHN renal it was 1.79 µM; in the test with IGROV1 ovarian, 1.67 µM.

Turning to `Cc1sc2nc(-c3ccccn3)c(/C=N/N=C(N)N)n2c1C`, the GI50 with NCI/ADR-RES ovarian was over 21.9 µM; in the test on M14 melanoma, 7.28 µM; with MOLT-4 leukemia, 10.2 µM; in the test on 786-0 renal, 4.84 µM; in the test on RPMI-8226 leukemia, 4.23 µM; in the test with T-47D breast, 3.93 µM. The GI50 in the test with SN12C renal was 14.4 µM; in the test with SK-MEL-2 melanoma, 7.99 µM; in the test on ACHN renal it was 7.29 µM; in the test on IGROV1 ovarian, 25.6 µM. Further, the TGI with NCI/ADR-RES ovarian is over 40 µM; in the test on M14 melanoma, 12.1 µM; in the test with MOLT-4 leukemia, over 27.5 µM; with 786-0 renal, 12.6 µM; in the test with RPMI-8226 leukemia it was 12.1 µM; in the test with T-47D breast, 10.2 µM. Besides, the TGI in the test on SN12C renal was 28.9 µM; in the test on SK-MEL-2 melanoma, 21.4 µM; in the test on ACHN renal, 14.8 µM; in the test with IGROV1 ovarian it was over 58.3 µM.

As for `Cn1c2ccccc2c2cc(-c3ccccc3)c3c(c21)C(=O)C=CC3=O`, the TGI with NCI/ADR-RES ovarian was over 100 µM; in the test on M14 melanoma, 47.9 µM; with MOLT-4 leukemia, 21.8 µM; in the test with 786-0 renal, 22.7 µM; with RPMI-8226 leukemia it was 8.61 µM; in the test with T-47D breast, 49.9 µM. The TGI came to 47.2 µM with SN12C renal, 49.9 µM in the test with SK-MEL-2 melanoma, 41.3 µM in the test with ACHN renal and 64.9 µM with IGROV1 ovarian.
